According to patent US8012963B2, “3,4-dihydro-2H-benzo[1,4]oxazine and thiazine derivatives as CETP inhibitors” (Janssen Pharmaceutica N.V., priority 2006, dated 2011):
Where “and” joins values, the source holds several entries; their conditions need not be identical. Equal entries are not always repeated.

Target: T1, CETP (Homo sapiens, UniProt P11597)
T1 construct: from tissue; host or cells: human plasma from normal volunteers
T1 sequence (P11597 18-493): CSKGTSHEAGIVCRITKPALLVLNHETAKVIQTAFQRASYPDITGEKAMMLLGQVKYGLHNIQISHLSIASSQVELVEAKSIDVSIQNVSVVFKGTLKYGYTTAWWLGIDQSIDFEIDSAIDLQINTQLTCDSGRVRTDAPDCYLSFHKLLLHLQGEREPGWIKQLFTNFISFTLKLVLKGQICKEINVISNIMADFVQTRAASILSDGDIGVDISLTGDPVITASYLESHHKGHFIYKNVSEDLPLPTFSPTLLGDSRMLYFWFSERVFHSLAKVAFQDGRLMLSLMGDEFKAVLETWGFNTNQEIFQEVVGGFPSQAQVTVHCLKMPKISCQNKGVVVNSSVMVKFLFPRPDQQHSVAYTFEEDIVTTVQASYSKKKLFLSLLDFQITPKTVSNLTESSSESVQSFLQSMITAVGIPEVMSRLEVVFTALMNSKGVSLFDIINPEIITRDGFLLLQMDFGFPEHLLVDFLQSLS
Assay: CETP in vitro assay ([3H]CE-HDL transfer, Amersham kit TRKQ7005; modified protocol in human plasma)
Format: biochemical
Details: multiple values = multiple measurements; for inhibition at 1 µM / % Inhibition @ 1 μM: 1 μM compound
Experimental: The CETP inhibitory activity of the compounds was determined using a commercially available kit from Amersham Biosciences (Catalog #TRKQ7005).
For the measurement of inhibitory activity in human plasma, a modified protocol (Connolly, D. T. et al., Biochemistry, 39 13870-13879, 2000) was used. Briefly, 80 μl of human plasma (obtained from normal volunteers), approximately 25 μg/ml (200) of [^3H]CE-HDL (Amersham Biosciences from kit TRKQ7005) and 1 μl of compound dissolved in DMSO was incubated for at least 4 hrs at 37° C. and non-specific transfer was determined by incubating a corresponding plate at 4° C. (blank). After the incubation period, 100 of a solution of 1% Dextralip 50/0.5M MgCl2, pH 7.4 was added, vortexed and incubated at room temperature for 10 min. The plate was then centrifuged for 30 min at 10° C. at 3000 rpm in a Sorvall RT6000B centrifuge. Fifty microliters of the supernatant was transferred to a Picoplate (Packard) containing 100 μl of Microscint 40 (Perkin Elmer) and mixed for 30 min using a plate mixer. The radioactivity was counted using a TopCount (Perkin Elmer) and the % control was determined in the samples using the following formula: % transfer relative to vehicle controls (% control)=[cpm blank-cpm test]/cpm blank/cpm control]×100. IC50s were calculated from plots of the % control versus compound concentration.
A variety of example compounds have been made and tested, with a range of in vitro results. Below, in Table 2, are representative compounds and the corresponding data; in some cases, where multiple IC50's are shown, multiple measurements were taken. Naturally, different compounds in Formula (I), (Ia), (Ib) and (Ic) may have not activities identical to any one compound below.

SMILES	inhibition at 1 µM	% Inhibition @ 1 μM	IC50
OCCCC1COc2c(-c3cccc(OC(F)(F)F)c3)cccc2N1CC(O)C(F)(F)F (centres unmarked) [Compound 52, 3-[4-(3,3,3-Trifluoro-2-hydroxy-propyl)-8-(3-trifluoromethoxy-phenyl)-3,4-dihydro-2H-benzo[1,4]oxazin-3-yl]-propan-1-ol]	–	13%	–
OC(CN1c2cccc(-c3cccc(OC(F)(F)F)c3)c2OCC1c1ccco1)C(F)(F)F (centres unmarked) [Compound 89, 1,1,1-Trifluoro-3-[3-furan-2-yl-8-(3-trifluoromethoxy-phenyl)-2,3-dihydro-benzo[1,4]oxazin-4-yl]-propan-2-ol]	17%	–	–
FC(F)C(F)(F)Oc1cccc(C2COc3c(-c4cccc(OC(F)(F)F)c4)cccc3N2CCN2CCOCC2)c1 (centres unmarked) [Compound 29, 4-(2-Morpholin-4-yl-ethyl)-3-[3-(1,1,2,2-tetrafluoro-ethoxy)-phenyl]-8-(3-trifluoromethoxy-phenyl)-3,4-dihydro-2H-benzo[1,4]oxazine]	0%	–	–
OC(CN1c2cccc(-c3cccc(OC(F)(F)F)c3)c2OCC1c1ccccc1)C(F)(F)F (centres unmarked) [Compound 95, 1,1,1-Trifluoro-3-[3-phenyl-8-(3-trifluoromethoxy-phenyl)-2,3-dihydro-benzo[1,4]oxazin-4-yl]-propan-2-ol]	–	43%	–
CN(CCN1c2cccc(-c3cccc(OC(F)(F)F)c3)c2OCC1c1cccc(OC(F)(F)C(F)F)c1)S(C)(=O)=O (centres unmarked) [Compound 44, N-Methyl-N-{2-[3-[3-(1,1,2,2-tetrafluoro-ethoxy)-phenyl]-8-(3-trifluoromethoxy-phenyl)-2,3-dihydro-benzo[1,4]oxazin-4-yl]-ethyl}-methanesulfonamide]	0%	–	–
OC(CN1c2cccc(-c3cccc(OC(F)(F)F)c3)c2OCC1c1ccoc1)C(F)(F)F (centres unmarked) [Compound 105, 1,1,1-Trifluoro-3-[3-furan-3-yl-8-(3-trifluoromethoxy-phenyl)-2,3-dihydro-benzo[1,4]oxazin-4-yl]-propan-2-ol]	–	2%	–
CCc1ccsc1C1COc2c(-c3cccc(OC(F)(F)F)c3)cccc2N1CC(O)C(F)(F)F (centres unmarked) [Compound 88, 3-[3-(3-Ethyl-thiophen-2-yl)-8-(3-trifluoromethoxy-phenyl)-2,3-dihydro-benzo[1,4]oxazin-4-yl]-1,1,1-trifluoro-propan-2-ol]	–	12%	–
Cc1ccsc1C1COc2c(-c3cccc(OC(F)(F)F)c3)cccc2N1CC(O)C(F)(F)F (centres unmarked) [Compound 85, 1,1,1-Trifluoro-3-[3-(3-methyl-thiophen-2-yl)-8-(3-trifluoromethoxy-phenyl)-2,3-dihydro-benzo[1,4]oxazin-4-yl]-propan-2-ol]	–	20%	–
OC(CN1c2cccc(-c3cccc(OC(F)(F)F)c3)c2OCC1c1ccccc1)C(F)(F)F (centres unmarked) [Compound 96, 1,1,1-Trifluoro-3-[3-phenyl-8-(3-trifluoromethoxy-phenyl)-2,3-dihydro-benzo[1,4]oxazin-4-yl]-propan-2-ol]	–	1%	–
COc1ccsc1C1COc2c(-c3cccc(OC(F)(F)F)c3)cccc2N1CC(O)C(F)(F)F (centres unmarked) [Compound 60, 1,1,1-Trifluoro-3-[3-(3-methoxy-thiophen-2-yl)-8-(3-trifluoromethoxy-phenyl)-2,3-dihydro-benzo[1,4]oxazin-4-yl]-propan-2-ol]	–	0%	–

Continued, values first:

inhibition at 1 µM	% Inhibition @ 1 μM	IC50	SMILES
14%	–	–	O[C@@H](CN1c2cccc(-c3cccc(OC(F)(F)F)c3)c2OC[C@H]1c1cccc(OC(F)(F)C(F)F)c1)C(F)(F)F [Compound 6, 4H-1,4-Benzoxazine-4-ethanol, 2,3-dihydro-3-[3-(1,1,2,2-tetrafluoroethoxy)phenyl]-8-[3-(trifluoromethoxy)phenyl]-α-(trifluoromethyl)-, (3R,αS)—]
–	38%	–	OC(CN1c2cccc(-c3cccc(OC(F)(F)F)c3)c2OCC1c1ccc(OC(F)(F)F)cc1)C(F)(F)F (centres unmarked) [Compound 97, 1,1,1-Trifluoro-3-[3-(4-trifluoromethoxy-phenyl)-8-(3-trifluoromethoxy-phenyl)-2,3-dihydro-benzo[1,4]oxazin-4-yl]-propan-2-ol]
0%	–	–	CC(=O)NCCN1c2cccc(-c3cccc(OC(F)(F)F)c3)c2OCC1c1cccc(OC(F)(F)C(F)F)c1 (centres unmarked) [Compound 40, N-{2-[3-[3-(1,1,2,2-Tetrafluoro-ethoxy)-phenyl]-8-(3-trifluoromethoxy-phenyl)-2,3-dihydro-benzo[1,4]oxazin-4-yl]-ethyl}-acetamide]
–	61% and 63%	214 nM	OC(CN1c2cccc(-c3cccc(OC(F)(F)F)c3)c2OCC1c1cccc(Cl)c1)C(F)(F)F (centres unmarked) [Compound 101, 3-[3-(3-Chloro-phenyl)-8-(3-trifluoromethoxy-phenyl)-2,3-dihydro-benzo[1,4]oxazin-4-yl]-1,1,1-trifluoro-propan-2-ol]
–	8%	–	CCOc1cccc(C2COc3c(-c4cccc(OC(F)(F)F)c4)cccc3N2CC(O)C(F)(F)F)c1 (centres unmarked) [Compound 18]
55%	–	147 nM	OC(CF)CN1c2cccc(-c3cccc(OC(F)(F)F)c3)c2OC[C@@H]1c1cccc(OC(F)(F)C(F)F)c1 (stereo in doubt) [Compound 75, 4H-1,4-Benzoxazine-4-ethanol, 2,3-dihydro-α-fluoromethyl-3-[3-(1,1,2,2-tetrafluoroethoxy)phenyl]-8-[3-(trifluoromethoxy)phenyl]-, (3S,αS)—]
2%	–	–	COC(=O)NCCN1c2cccc(-c3cccc(OC(F)(F)F)c3)c2OCC1c1cccc(OC(F)(F)C(F)F)c1 (centres unmarked) [Compound 41, {2-[3-[3-(1,1,2,2-Tetrafluoro-ethoxy)-phenyl]-8-(3-trifluoromethoxy-phenyl)-2,3-dihydro-benzo[1,4]oxazin-4-yl]-ethyl}-carbamic acid methyl ester]
–	50%	–	OC(CF)CN1c2cccc(-c3cccc(OC(F)(F)F)c3)c2OCC1c1cccc(OC(F)(F)C(F)F)c1 (centres unmarked) [Compound 69, 1-Fluoro-3-[3-[3-(1,1,2,2-tetrafluoro-ethoxy)-phenyl]-8-(3-trifluoromethoxy-phenyl)-2,3-dihydro-benzo[1,4]oxazin-4-yl]-propan-2-ol]
–	73%	276 nM and 131 nM	OC(CN1c2cccc(-c3cccc(OC(F)(F)F)c3)c2OCC1c1cccc(OC(F)(F)C(F)F)c1)C(F)(F)F (single isomer, unassigned) [Compound 2, 1,1,1-Trifluoro-3-[3-[3-(1,1,2,2-tetrafluoro-ethoxy)-phenyl]-8-(3-trifluoromethoxy-phenyl)-2,3-dihydro-benzo[1,4]oxazin-4-yl]-propan-2-ol]
–	29%	–	COc1cccc(C2COc3c(-c4cccc(OC(F)(F)F)c4)cccc3N2CC(O)C(F)(F)F)c1 (centres unmarked) [Compound 99, 1,1,1-Trifluoro-3-[3-(3-methoxy-phenyl)-8-(3-trifluoromethoxy-phenyl)-2,3-dihydro-benzo[1,4]oxazin-4-yl]-propan-2-ol]
27%	–	–	OC[C@@H](O)CN1c2cccc(-c3cccc(OC(F)(F)F)c3)c2OC[C@@H]1c1cccc(OC(F)(F)C(F)F)c1 [Compound 47, 1,2-Propanediol, 3-[(3S)-2,3-dihydro-3-[3-(1,1,2,2-tetrafluoroethoxy)phenyl]-8-[3-(trifluoromethoxy)phenyl]-4H-1,4-benzoxazin-4-yl]-, (2S)—]
10%	–	–	OCCCN1c2cccc(-c3cccc(OC(F)(F)F)c3)c2OCC1c1cccc(OC(F)(F)C(F)F)c1 (centres unmarked) [Compound 26, 3-[3-[3-(1,1,2,2-Tetrafluoro-ethoxy)-phenyl]-8-(3-trifluoromethoxy-phenyl)-2,3-dihydro-benzo[1,4]oxazin-4-yl]-propan-1-ol]
77%	–	14 nM	OC(CF)CN1c2cccc(-c3cccc(OC(F)(F)F)c3)c2OC[C@@H]1c1cccc(OC(F)(F)C(F)F)c1 (stereo in doubt) [Compound 74, 4H-1,4-Benzoxazine-4-ethanol, 2,3-dihydro-α-fluoromethyl-3-[3-(1,1,2,2-tetrafluoroethoxy)phenyl]-8-[3-(trifluoromethoxy)phenyl]-, (3S,αR)—]
–	97% and 83%	780 nM	OC(CN1c2cccc(-c3cccc(F)c3)c2OCC1c1cccc(OC(F)(F)C(F)F)c1)C(F)(F)F (single isomer, unassigned) [Compound 67, 1,1,1-Trifluoro-3-{8-(3-fluoro-phenyl)-3-[3-(1,1,2,2-tetrafluoro-ethoxy)-phenyl]-2,3-dihydro-benzo[1,4]oxazin-4-yl}-propan-2-ol]
